{"source": "patent US20240050432A1", "about": "(Infinity Pharmaceuticals, Inc., priority 2020, published 2024)", "format_in_all_cases": "in vivo, human", "key": {"PD-L1": {"test_system": "PD-L1", "assay": "Paired tumor biopsies in TNBC phase II study: PD-L1 expression", "details": "11 paired tumor biopsies; triplet regimen"}, "[1]": {"assay": "Hepatic TEAEs by eganelisib dose in combination with nivolumab (phase 1 Part C, phase 2)"}, "[2]": {"assay": "Eganelisib exposures (Cmax, AUC0-24 hrs) with combination therapies, 3 clinical studies", "details": "for observed highest individual concentration value: PK cutoff June-July 2020; for Cmax / AUC(0-t): human, in vivo"}, "[3]": {"details": "30 mg QD, C1D1, model-predicted"}, "[4]": {"details": "30 mg QD, C2D1, model-predicted"}, "[5]": {"details": "40 mg QD, C1D1, model-predicted"}, "[6]": {"details": "40 mg QD, C2D1, model-predicted"}}, "note": "Like-named read-outs stand apart in the source and are kept apart here.", "data": [{"compound": "C[C@H](NC(=O)c1c(N)nn2cccnc12)c1cc2cccc(C#Cc3cnn(C)c3)c2c(=O)n1-c1ccccc1", "note": "[Compound 1, eganelisib]", "values": [{"measurement": "change of PD-L1 status/expression in paired tumor biopsies", "setting": "PD-L1", "value": "on-mechanism conversion of patients from PD-L1(−) to PD-L1(+) and increase in PD-L1 expression in PD-L1(+) patients"}, {"measurement": "subjects with Grade 3 hepatic TEAE", "setting": "[1]; eganelisib 30 mg QD with nivolumab 480 mg Q4W", "value": "< 20", "unit": "%"}, {"measurement": "subjects with Hepatic TEAEs", "setting": "[1]; eganelisib 40 mg QD with nivolumab 480 mg Q4W", "value": "> 20", "unit": "%"}, {"measurement": "Cmax, Max", "setting": "[2]; [3]", "value": 1750, "unit": "ng/mL"}, {"measurement": "Cmax, Min", "setting": "[2]; [3]", "value": 637, "unit": "ng/mL"}, {"measurement": "Cmax, Max", "setting": "[2]; [4]", "value": 4070, "unit": "ng/mL"}, {"measurement": "Cmax, Min", "setting": "[2]; [4]", "value": 684, "unit": "ng/mL"}, {"measurement": "observed highest individual concentration value", "setting": "[2]; 30 mg QD, across all 3 studies", "value": 4.42, "unit": "µg/mL"}, {"measurement": "Cmax, Max", "setting": "[2]; [5]", "value": 3630, "unit": "ng/mL"}, {"measurement": "Cmax, Min", "setting": "[2]; [5]", "value": 346, "unit": "ng/mL"}, {"measurement": "Cmax, Max", "setting": "[2]; [6]", "value": 8830, "unit": "ng/mL"}, {"measurement": "Cmax, Min", "setting": "[2]; [6]", "value": 480, "unit": "ng/mL"}, {"measurement": "observed highest individual concentration value", "setting": "[2]; 40 mg QD, across all 3 studies", "value": 11.4, "unit": "µg/mL"}, {"measurement": "observed highest individual concentration lower for 30 mg QD versus 40 mg QD", "setting": "[2]; across all 3 studies", "value": 61, "unit": "%"}, {"measurement": "Cmax", "setting": "[2]; 30 mg QD, C1D1, model-predicted, read-out: Cmax, Mean", "value": 1020, "unit": "ng/mL"}, {"measurement": "Cmax", "setting": "[2]; 30 mg QD, C1D1, model-predicted, read-out: Cmax, Median", "value": 978, "unit": "ng/mL"}, {"measurement": "AUC(0-t)", "setting": "[2]; 30 mg QD, C2D1, model-predicted, read-out: AUC0-24 hrs, GeoMean", "value": 29200, "unit": "ng·h/mL"}, {"measurement": "AUC(0-t)", "setting": "[2]; 30 mg QD, C2D1, model-predicted, read-out: AUC0-24 hrs, Mean", "value": 33600, "unit": "ng·h/mL"}, {"measurement": "AUC(0-t)", "setting": "[2]; 30 mg QD, C2D1, model-predicted, read-out: AUC0-24 hrs, Median", "value": 25800, "unit": "ng·h/mL"}, {"measurement": "Cmax", "setting": "[2]; 30 mg QD, C2D1, model-predicted, read-out: Cmax, GeoMean", "value": 1680, "unit": "ng/mL"}, {"measurement": "Cmax", "setting": "[2]; 30 mg QD, C2D1, model-predicted, read-out: Cmax, Median", "value": 1530, "unit": "ng/mL"}, {"measurement": "AUC(0-t)", "setting": "[2]; 40 mg, 40 mg QD, C1D1, model-predicted, read-out: AUC0-24 hrs, GeoMean", "value": 26200, "unit": "ng·h/mL"}, {"measurement": "AUC(0-t)", "setting": "[2]; 40 mg, 40 mg QD, C1D1, model-predicted, read-out: AUC0-24 hrs, Mean", "value": 28400, "unit": "ng·h/mL"}, {"measurement": "AUC(0-t)", "setting": "[2]; 40 mg, 40 mg QD, C1D1, model-predicted, read-out: AUC0-24 hrs, Median", "value": 26000, "unit": "ng·h/mL"}, {"measurement": "Cmax", "setting": "[2]; 40 mg, 40 mg QD, C1D1, model-predicted, read-out: Cmax, GeoMean", "value": 1550, "unit": "ng/mL"}, {"measurement": "Cmax", "setting": "[2]; 40 mg, 40 mg QD, C1D1, model-predicted, read-out: Cmax, Mean", "value": 1650, "unit": "ng/mL"}, {"measurement": "Cmax", "setting": "[2]; 40 mg, 40 mg QD, C1D1, model-predicted, read-out: Cmax, Median", "value": 1560, "unit": "ng/mL"}, {"measurement": "AUC(0-t)", "setting": "[2]; 40 mg, 40 mg QD, C2D1, model-predicted, read-out: AUC0-24 hrs, GeoMean", "value": 42100, "unit": "ng·h/mL"}, {"measurement": "AUC(0-t)", "setting": "[2]; 40 mg, 40 mg QD, C2D1, model-predicted, read-out: AUC0-24 hrs, Mean", "value": 49600, "unit": "ng·h/mL"}, {"measurement": "AUC(0-t)", "setting": "[2]; 40 mg, 40 mg QD, C2D1, model-predicted, read-out: AUC0-24 hrs, Median", "value": 41400, "unit": "ng·h/mL"}, {"measurement": "Cmax", "setting": "[2]; 40 mg, 40 mg QD, C2D1, model-predicted, read-out: Cmax, GeoMean", "value": 2470, "unit": "ng/mL"}, {"measurement": "Cmax", "setting": "[2]; 40 mg, 40 mg QD, C2D1, model-predicted, read-out: Cmax, Mean", "value": 2770, "unit": "ng/mL"}, {"measurement": "Cmax", "setting": "[2]; 40 mg, 40 mg QD, C2D1, model-predicted, read-out: Cmax, Median", "value": 2420, "unit": "ng/mL"}, {"measurement": "AUC(0-t)", "setting": "[2]; oral, 30 mg QD, C1D1, model-predicted, read-out: AUC0-24 hrs, GeoMean", "value": 16100, "unit": "ng·h/mL"}, {"measurement": "AUC(0-t)", "setting": "[2]; oral, 30 mg QD, C1D1, model-predicted, read-out: AUC0-24 hrs, Mean", "value": 16700, "unit": "ng·h/mL"}, {"measurement": "AUC(0-t)", "setting": "[2]; oral, 30 mg QD, C1D1, model-predicted, read-out: AUC0-24 hrs, Median", "value": 15900, "unit": "ng·h/mL"}, {"measurement": "Cmax", "setting": "[2]; oral, 30 mg QD, C1D1, model-predicted, read-out: Cmax, GeoMean", "value": 993, "unit": "ng/mL"}, {"measurement": "Cmax", "setting": "[2]; oral, 30 mg QD, C2D1, model-predicted, read-out: Cmax, Mean", "value": 1860, "unit": "ng/mL"}]}]}
